The values below come from US20090198069A1, “METAL COMPLEX, LIGHT-EMITTING DEVICE AND DISPLAY” (NAGASAKI UNIVERSITY, NATIONAL UNIVERSITY CORPORATI, priority 2005, published 2009).

The data set can be described thus: Solubility in a solvent (qualitative). The class given is physicochemical.
Setting [1] is: dichloromethane (methylene chloride).

Structures are written as SMILES.

As to `Cc1cc(C)[n+]2[n]1[Pt-2]13[n]4c(C)cc(C)[n+]4[Ag-][n]4c(C)cc(C)[n+]4[Pt-2]([n]4c(C)cc(C)[n+]4[Ag-][n]4c(C)cc(C)[n+]41)([n]1c(C)cc(C)[n+]1[Ag-][n]1c(C)cc(C)[n+]13)[n+]1c(C)cc(C)[n]1[Ag-]2` [[Pt2Ag4(μ-dmpz)8]], the “solubility in a solvent” value is given as “not soluble” (acetone); “moderately soluble” (acetonitrile); “highly soluble” (benzene); “extremely highly soluble” (chloroform); “extremely highly soluble” under setting [1]; “moderately soluble” (hexane). The “solubility in a solvent” value is reported as “not soluble” (methanol) and “highly soluble” (toluene).
Turning to `CC(C)(C)c1ccn[nH]1.CC(C)(C)c1ccn[nH]1.CC(C)(C)c1ccn[nH]1.CC(C)(C)c1ccn[nH]1.[Cl-].[Cl-].[Pt+2]` [[Pt(3-^tBupzH)4]Cl2], the “solubility in a solvent” value (chloroform) is given as “readily soluble”, the “solubility in a solvent” value under setting [1] is recorded as “readily soluble”, the “solubility in a solvent” value (methanol) is reported as “soluble” and the “solubility in a solvent” value (toluene) is listed as “soluble”.
With `CC(C)(C)c1cc[n-]n1.CC(C)(C)c1cc[n-]n1.CC(C)(C)c1cc[nH]n1.CC(C)(C)c1cc[nH]n1.[Pt+2]` [[Pt(3-^tBupz)2(3-^tBupzH)2]], the “solubility in a solvent” value is given as “soluble” (acetone); “readily soluble” (chloroform); “readily soluble” under setting [1]; “soluble” (hexane); “soluble” (methanol).
In the case of `CC(C)(C)c1cc[n+]2[n]1[Cu-][n+]1c(C(C)(C)C)cc[n]1[Pt-2]13[n]4ccc(C(C)(C)C)[n+]4[Cu-][n]4c(C(C)(C)C)cc[n+]4[Pt-2]2([n]2ccc(C(C)(C)C)[n+]2[Cu-][n]2c(C(C)(C)C)cc[n+]21)[n]1ccc(C(C)(C)C)[n+]1[Cu-][n]1c(C(C)(C)C)cc[n+]13` [[Pt2Cu4(μ-3-^tBupz)8]], the “solubility in a solvent” value is, setting by setting: (chloroform) “soluble”; under setting [1], “soluble”.
In the case of `Cc1cc(C)[n+]2[n]1[Pt-2]13[n]4c(C)cc(C)[n+]4[Cu-][n]4c(C)cc(C)[n+]4[Pt-2]([n]4c(C)cc(C)[n+]4[Cu-][n]4c(C)cc(C)[n+]41)([n]1c(C)cc(C)[n+]1[Cu-][n]1c(C)cc(C)[n+]13)[n+]1c(C)cc(C)[n]1[Cu-]2` [[Pt2Cu4(μ-dmpz)8]], the “solubility in a solvent” value runs as follows: (acetone) “slightly soluble”; (acetonitrile) “poorly soluble”; (chloroform) “soluble”; under setting [1], “soluble”; (diethyl ether) “slightly soluble”; (methanol) “poorly soluble”. For the same compound, the “solubility in a solvent” value (toluene) is recorded as “poorly soluble”.
`Cc1cc(C)[n]([Pt-2]([n]2nc(C)cc2C)([n+]2[nH]c(C)cc2C)[n+]2[nH]c(C)cc2C)n1.Cc1cc(C)[n]([Pt-2]([n]2nc(C)cc2C)([n+]2[nH]c(C)cc2C)[n+]2[nH]c(C)cc2C)n1` [[{Pt(dmpz)2(dmpzH)2}2]]: the “solubility in a solvent” value by setting is: (acetone) “not soluble”; (acetonitrile) “moderately soluble”; (benzene) “highly soluble”; (chloroform) “extremely highly soluble”; under setting [1], “extremely highly soluble”; (diethyl ether) “moderately soluble”. The “solubility in a solvent” value is, setting by setting: (methanol) “not soluble”; (toluene) “highly soluble”; (water) “not soluble”.
For the compound `CC(C)(C)c1cc[n+]2[n]1[Ag-][n+]1c(C(C)(C)C)cc[n]1[Pt-2]13[n]4ccc(C(C)(C)C)[n+]4[Ag-][n]4c(C(C)(C)C)cc[n+]4[Pt-2]2([n]2ccc(C(C)(C)C)[n+]2[Ag-][n]2c(C(C)(C)C)cc[n+]21)[n]1ccc(C(C)(C)C)[n+]1[Ag-][n]1c(C(C)(C)C)cc[n+]13` [[Pt2Ag4(μ-3-^tBupz)8]], the “solubility in a solvent” value is “readily soluble” (chloroform) and “readily soluble” under setting [1].
`[Cl][Pt-2]([n]1nc(-c2ccccc2)cc1-c1ccccc1)([n+]1[nH]c(-c2ccccc2)cc1-c1ccccc1)[n+]1[nH]c(-c2ccccc2)cc1-c1ccccc1` [[PtCl(dppz)(dppzH)2]]: the “solubility in a solvent” value (acetone) was “readily soluble”; the “solubility in a solvent” value (acetonitrile) is on record as “soluble”; the “solubility in a solvent” value (benzene) is “soluble”; the “solubility in a solvent” value (chloroform) is reported as “readily soluble”; the “solubility in a solvent” value under setting [1] is on record as “readily soluble”; the “solubility in a solvent” value (toluene) is “soluble”.
Regarding `Cc1ccn[n]1[Pt-2]([n]1nccc1C)([n+]1[nH]ccc1C)[n+]1[nH]ccc1C.Cc1ccn[n]1[Pt-2]([n]1nccc1C)([n+]1[nH]ccc1C)[n+]1[nH]ccc1C` [[{Pt(3-Mepz)2(3-MepzH)2}2]], the “solubility in a solvent” value runs as follows: (benzene) “soluble”; (chloroform) “readily soluble”; under setting [1], “readily soluble”; (diethyl ether) “soluble”; (toluene) “soluble”.
As for `c1ccc(-c2cc(-c3ccccc3)[n+]3[n]2[Pt-2]24[Cl+][Ag-][n]5c(-c6ccccc6)cc(-c6ccccc6)[n+]5[Pt-2]([Cl+][Ag-][n]5c(-c6ccccc6)cc(-c6ccccc6)[n+]52)([n]2c(-c5ccccc5)cc(-c5ccccc5)[n+]2[Ag-][n]2c(-c5ccccc5)cc(-c5ccccc5)[n+]24)[n+]2c(-c4ccccc4)cc(-c4ccccc4)[n]2[Ag-]3)cc1` [[Pt2Ag4(μ-Cl)2(μ-dppz)6]], the “solubility in a solvent” value is, setting by setting: (acetonitrile) “slightly soluble”; (benzene) “soluble”; (chloroform) “readily soluble”; under setting [1], “readily soluble”; (toluene) “soluble”.
Turning to `Cc1cc[n+]2[n]1[Pt-2]13[n]4c(C)cc[n+]4[Ag-][n]4ccc(C)[n+]4[Pt-2]([n]4c(C)cc[n+]4[Ag-][n]4ccc(C)[n+]41)([n]1c(C)cc[n+]1[Ag-][n]1ccc(C)[n+]13)[n+]1c(C)cc[n]1[Ag-]2` [[Pt2Ag4(μ-3-Mepz)8]], the “solubility in a solvent” value is, setting by setting: (acetonitrile) “slightly soluble”; (benzene) “slightly soluble”; (chloroform) “soluble”; under setting [1], “soluble”; (toluene) “slightly soluble”.
